Test results: paper PMC3912015, “Synthetic Multivalent Antifungal Peptides Effective against Fungi” (PLoS ONE, 2014)
≈ marks a conversion by molar mass, not a printed value. Like-named read-outs stand apart in the source and are kept apart here. Bridge positions count the residues as written; N and C are the ends. Peptide text beside a SMILES is read from it. I, II: the chains in the order shown.

Experiments:
rabbit red blood cells = test: Haemolytic assay; format: cell-based; conditions: 4% rabbit erythrocytes, 1 h
Procedure: Haemolytic activity of peptides and antifungal drugs were determined against rabbit red blood cells. Briefly, serial dilution of peptides/antifungals in PBS was mixed with rRBC (final concentration 4% v/v), incubated at 37°C for 1 h and centrifuged at 3000 rpm for 10 minutes. The release of hemoglobin in the supernatant was monitored by measuring the hemoglobin absorbance at 576 nm. The readings from cell suspension in PBS (without any additives) or 1% Triton-X100 were used as 0% or 100% haemolysis.

[1] = Isothermal titration calorimetry; format: binding; conditions: PC SUVs, 15% ergosterol, 25°C
Procedure: ITC experiments were performed using a Microcal VP-ITC Calorimeter (Microcal, Northampton, MA, USA). SUVs, B4010, and polyene antifungals were dissolved in 10 mM HEPES buffered saline at pH 7.2. […] A total of 40 injections were performed and the heat of reaction produced by each injection was determined by integration of heat flow traces. In a separate experiment, the heat of dilution was determined by titrating SUVs into the buffer solution (without peptide). The heat of dilution was subtracted from the heat changes determined in the peptide/antifungal-liposome experiments.

C. albicans DF1976R = test: microbe, parasite or virus in culture; format: cell-based
Procedure: (§1) The yeast strains were cultivated and suspended in Sabouraud’s Dextrose (SD) broth diluted to one sixth at a starting OD600 = ∼0.08 in a flat-bottomed microtitre plate. A serial dilution of peptide in the same broth was mixed with the inoculum to give a final peptide concentration of 0.4–22 µM. The antifungal activity was assessed by monitoring the OD600 in cycles of 30 minutes and an orbital shaking at 100 rpm using an Infinite M200 microplate reader (Tecan Group Ltd., Switzerland) for 24/48 h at 37°C. Cultures without peptides were used as positive controls and broth alone or with 22 µM peptide served as negative controls. The minimum concentration required for complete inhibition was assessed by both visible observations as well as by measuring the OD600 and taken as the MIC. Each experiment was repeated in triplicates. For studying the effects of metal ions, SD broth was adjusted with appropriate concentrations of salts to yield a final concentration of 100 and 135 mM for NaCl and KCl and 0.5–2 mM for CaCl2 and MgCl2. MIC determinations were carried out as described above. C. albicans ATCC10231 cells and salts in broth were taken as a positive control. Salts alone (NaCl, KCl, and CaCl2 and MgCl2) in broth or with 22 µM peptide served as a negative control. The effect of 5% human serum on the activities of B4010 against two C. albicans clinical isolates was determined. The human male serum was centrifuged at 13,000 rpm for 10 mins in order to remove the lipids and the supernatant was collected. The MIC values against clinical isolates of C. albicans 2672R and C. albicans 1976R were determined both in standard medium (SD broth) as well as in standard medium containing 5% serum supernatant as before.

C. albicans ATCC10231 = test: microbe, parasite or virus in culture; format: cell-based
Procedure: as §1

C. albicans ATCC24433 = test: microbe, parasite or virus in culture; format: cell-based
Procedure: as §1

C. albicans DF2672R [2] = test: microbe, parasite or virus in culture; format: cell-based
Procedure: as §1

C. albicans ATCC2091 = test: microbe, parasite or virus in culture; format: cell-based
Procedure: as §1

[3] = test system: human conjunctival epithelial cells (IOBA-NHC); test: cells; format: cell-based; conditions: 24 h
Procedure: (§2) Immortalized normal human conjunctival epithelial cells (IOBANHC) were a gift from Yolanda Diebold at the University of Valladolid, Spain [31]. IOBA-NHC cells were cultured under standard conditions (humidified atmosphere of 5% CO2 at 37°C) in DMEM/F12 supplemented with 1 µg/ml bovine pancreas insulin, 2 ng/ml mouse epidermal growth factor, 0.1 µg/ml cholera toxin, 5 µg/ml hydrocortisone, 10% fetal bovine serum (FBS), 50 UI/ml penicillin, and 50 UI/ml streptomycin. Cells from passages 50–80 were used in all experiments. Every day, normal culture development was observed by phase-contrast microscopy. Cells were removed by gentle trypsin incubation at confluence and counted. They were seeded into 96 well culture plates (Corning, Schiphol-Rijk, The Netherlands) for microtitration analysis of flow cytotoxicity assay (∼10,000 cells/well). Cultures were kept at 37°C for 24 h. Subconfluent cells (culture surface covering nearly 70%) were then exposed to various peptide concentrations (0.22–225 µM). Cytotoxicity was measured periodically using MultiTox-Fluor Multiplex assay kit (Promega, WI, USA) by measuring the AFC fluorescence (λex = 485 and λem = 520 nm). We report the cell viability after 24 h incubation of the cells with the peptides since there was no detectable toxicity even after 8 h of incubation.

[4] = test system: clinical isolates of C. albicans 2672R and C. albicans 1976R; test: MIC against two clinical isolates, with or without 5% human serum; format: cell-based; conditions: Candida albicans; standard medium without serum
Procedure: as §1

C. albicans DF2672R [5] = test: Time-kill kinetics assay; format: cell-based
Procedure: (§3) The time-kill kinetics of B4010 was determined against two strains of C. albicans (ATCC 10231 and DF2672R). The cultures were grown overnight in SD broth and the cell concentration was adjusted to 10^5–10^6 CFU/mL with phosphate buffer. The peptide or antifungals were added to the individual cultures. […] The test solution was incubated at 37°C with constant shaking. 100 µL of the suspension was withdrawn at predetermined time points, serially diluted (10^2 or 10^3 fold) and poured into the SDA plate. The plate was incubated for 48 h at 37°C for colony counting. The data were expressed in terms of % fungal viability relative to the positive control.

[6] = format: biochemical
Procedure: Small unilamellar vesicles (SUVs) were prepared using PC/PE/PI or PS lipids (5∶2.5∶2.5) containing 15 wt% ergosterol or PC/Cholesterol (10∶1). For the preparation of PC/PE/PI or PS/Erg SUV, the lipids were dissolved in chloroform/methanol (2∶1, v/v) in a glass tube. Ergosterol was dissolved in same solvent and added to lipid mixture to make final ergosterol content of 15 wt%. The Lipid-ergosterol mixture was dried using nitrogen gas to form lipid layer. The film was hydrated in a buffer containing 20 mM PBS (pH 7), vortexed and sonicated. Each cycle of sonication (5 sec, 40°C) was followed by freezing in liquid nitrogen and thawing on a water bath kept at 37°C. The procedure was repeated 5–6 times until an optically clear dispersion appeared. The SUV was divided into two parts. To the first part 50 mM calcein was added and incubated for 1 h. The excess calcein was removed by injecting 100 µL of the calcien-loaded SUV’s into a Ultrahydrogel™ 250 (7.8 mm × 300 mm) column equilibrated with 20 mM PBS (pH 7.0) and eluted isochratically at a flow rate of 1 mL/min for 1.5 column volumes. The calcein-loaded liposomes were mixed with calcein-free liposome (1∶1) to adjust final liposome concentration. Peptide concentration was added to obtain 1∶30 or 1∶15 peptide:liposome ratio. Changes in the fluorescence signal after addition of peptide or Triton X-100 was measured on a PTI spectrofluorometer, using an excitation wavelength of 480 nm and emission wavelength of 512 nm. The Percentage calcein released at each time point was calculated using the equation, [drawing 1]
Where A0 is the observed fluorescence intensity upon addition of peptides, Amin is the average intensity at the baseline (before peptide addition), Amax is the average intensity at the saturation phase after adding 1% Triton X-100. Similar protocol was followed for the preparation of PC/Cholesterol SUVs.

in vitro = format: cell-based, human; conditions: human
Procedure: as §2

C. albicans ATCC 10231 = test: Time-kill kinetics assay; format: cell-based; conditions: 16× MIC
Procedure: as §3

F. solani DM3782 = test: microbe, parasite or virus in culture; format: cell-based; conditions: Fusarium solani; F. solani DM3782
F. solani ATCC36031 = test: microbe, parasite or virus in culture; format: cell-based; conditions: Fusarium solani; F. solani ATCC36031
F. solani DF1500 = test: microbe, parasite or virus in culture; format: cell-based; conditions: Fusarium solani; F. solani DF1500
[7] = Candida albicans, DF1976R, Table 3, read-out: MIC in µM against Ca DF1976R
[8] = Candida albicans, ATCC10231, Table 3, read-out: MIC in µM against Ca 10231
[9] = Candida albicans, ATCC24433, Table 3, read-out: MIC in µM against Ca 24433
[10] = Candida albicans, DF2672R, Table 3, read-out: MIC in µM against Ca 2672R
[11] = Candida albicans, ATCC2091, Table 3, read-out: MIC in µM against Ca 2091
[12] = Homo sapiens, Epithelial cell, 24 h exposure, read-out: EC50 (effective concentration required to kill 50% of human conjunctival epithelial cells)

C[C@@H]1[C@H](O)[C@@H](C)/C=C/C=C/C=C/C=C/C=C/C=C/C=C/[C@H](O[C@@H]2O[C@H](C)[C@@H](O)[C@H](N)[C@@H]2O)C[C@@H]2O[C@](O)(C[C@@H](O)C[C@@H](O)[C@H](O)CC[C@@H](O)C[C@@H](O)CC(=O)O[C@H]1C)C[C@H](O)[C@H]2C(=O)O [Amphotericin B, reference compound]
HC50 (rabbit red blood cells): 59.4 ± 7.8 µM | affinity for membrane bound ergosterol (ITC) [1]: strong affinity | MIC (C. albicans DF1976R; [7]): 1.35 µM (≈ 1.25 µg/mL) | MIC (C. albicans ATCC10231; [8]): 1.35 µM (≈ 1.25 µg/mL) | MIC (C. albicans ATCC24433; [9]): 1.35 µM (≈ 1.25 µg/mL) | MIC (C. albicans DF2672R [2]; [10]): 1.35 µM (≈ 1.25 µg/mL) | MIC (C. albicans ATCC2091; [11]): < 0.4 µM | EC50 [3, 12]: 134 ± 16 µM | MIC [4]: 1.4 µM (≈ 1.29 µg/mL) | time to maximal effect (C. albicans DF2672R [5]; 16× MIC): less than 8 h | % Calcein released from PC/PE/PS/Erg [6]: 0%

CC(C)[C@H](NC(=O)[C@H](CCCCN)NC(=O)[C@H](C)NC(=O)CNC(=O)[C@@H](N)CCCNC(=N)N)C(=O)N[C@H](C(=O)N[C@@H](CCCNC(=N)N)C(=O)N[C@@H](CCCNC(=N)N)C(=O)NCCCC[C@H](NC(=O)[C@H](CCCNC(=N)N)NC(=O)[C@H](CCCNC(=N)N)NC(=O)[C@@H](NC(=O)[C@@H](NC(=O)[C@H](CCCCN)NC(=O)[C@H](C)NC(=O)CNC(=O)[C@@H](N)CCCNC(=N)N)C(C)C)C(C)C)C(=O)NCCCC[C@H](NC(=O)[C@H](CCCCNC(=O)[C@H](CCCNC(=N)N)NC(=O)[C@H](CCCNC(=N)N)NC(=O)[C@@H](NC(=O)[C@@H](NC(=O)[C@H](CCCCN)NC(=O)[C@H](C)NC(=O)CNC(=O)[C@@H](N)CCCNC(=N)N)C(C)C)C(C)C)NC(=O)[C@H](CCCNC(=N)N)NC(=O)[C@H](CCCNC(=N)N)NC(=O)[C@@H](NC(=O)[C@@H](NC(=O)[C@H](CCCCN)NC(=O)[C@H](C)NC(=O)CNC(=O)[C@@H](N)CCCNC(=N)N)C(C)C)C(C)C)C(=O)N[C@@H](CCCCN)C(=O)O)C(C)C [B4010_R3A] (I: H-RGAKVVRRKKK-OH / II: H-RGAKVVRRK / III: H-RGAKVVRR / IV: H-RGAKVVRR; amide I:9-IV:C, I:10-II:C, II:9-III:C; N-terminus and C-terminus assumed)
MIC (C. albicans DF1976R; DF1976R, 48 h, read-out: MIC in µM against Ca DF1976R): 0.4 µM (≈ 1.69 µg/mL) | MIC (C. albicans ATCC10231; ATCC10231, 48 h, read-out: MIC in µM against Ca 10231): 1.5 µM (≈ 6.33 µg/mL) | MIC (C. albicans ATCC24433; ATCC24433, 48 h, read-out: MIC in µM against Ca 24433): 1.5 µM (≈ 6.33 µg/mL) | MIC (C. albicans DF2672R [2]; DF2672R, 48 h, read-out: MIC in µM against Ca 2672R): 0.4 µM (≈ 1.69 µg/mL) | MIC (C. albicans ATCC2091; ATCC2091, 48 h, read-out: MIC in µM against Ca 2091): 1.5 µM (≈ 6.33 µg/mL) | viability at 24 h, 237 µM (in vitro): 80.9% | EC50 [3]: > 237 µM | % Calcein released from PC/PE/PS/Erg [6]: ~63%

C[C@@H]1C/C=C/C=C/C=C/C=C/[C@H](O[C@@H]2O[C@H](C)[C@@H](O)[C@H](N)[C@@H]2O)C[C@@H]2O[C@](O)(C[C@@H](O)C[C@H]3O[C@@H]3/C=C/C(=O)O1)C[C@H](O)[C@H]2C(=O)O [Natamycin, reference compound]
HC50 (rabbit red blood cells): 139.6 ± 0.18 µM | MIC (C. albicans DF1976R; [7]): 15 µM (≈ 9.99 µg/mL) | MIC (C. albicans DF1976R; Candida albicans, C. albicans DF1976R, read-out: MIC): 15 µM (≈ 9.99 µg/mL) | MIC (C. albicans ATCC10231; [8]): 15 µM (≈ 9.99 µg/mL) | MIC (C. albicans ATCC10231; Candida albicans, C. albicans ATCC10231, read-out: MIC): 15 µM (≈ 9.99 µg/mL) | MIC (C. albicans ATCC24433; [9]): 15 µM (≈ 9.99 µg/mL) | MIC (C. albicans ATCC24433; Candida albicans, C. albicans ATCC24433, read-out: MIC): 15 µM (≈ 9.99 µg/mL) | MIC (C. albicans DF2672R [2]; [10]): 15 µM (≈ 9.99 µg/mL) | MIC (C. albicans DF2672R [2]; Candida albicans, C. albicans DF2672R, read-out: MIC): 15 µM (≈ 9.99 µg/mL) | MIC (C. albicans ATCC2091; [11]): 7.5 µM (≈ 4.99 µg/mL) | MIC (C. albicans ATCC2091; Candida albicans, C. albicans ATCC2091, read-out: MIC): 7.5 µM (≈ 4.99 µg/mL) | EC50 [3, 12]: 212 ± 20.5 µM | MIC [4]: 15 µM (≈ 9.99 µg/mL) | time required to achieve similar endpoints (4 log reduction) (C. albicans ATCC 10231): 24 h | fungicidal action (C. albicans DF2672R [5]; 2× MIC, 24 h exposure): no fungicidal action | MIC (F. solani DM3782): 2.4 µM (≈ 1.6 µg/mL) | MIC (F. solani ATCC36031): 4.7 µM (≈ 3.13 µg/mL) | MIC (F. solani DF1500): 2.4 µM (≈ 1.6 µg/mL) | % Calcein released from PC/PE/PS/Erg [6]: 0%
